In patent publication US20260265239A1, “CRYSTAL FORM OF 2,6-PIPERIDINEDIONE COMPOUND, AND PREPARATION METHOD THEREFOR AND USE THEREOF” (ZHANGZHOU PIEN TZE HUANG PHARMACEUTICAL CO., LTD., priority 2023, published 2026):
Structures can show the parent of a compound that is named as a salt.

Tested on: human diffuse large B-cell lymphoma TMD-8 cells
Assay: BALB/c nude mouse subcutaneous xenograft tumor model of human diffuse large B-cell lymphoma TMD-8 cells
Assay type: in vivo, BALB/c nude mice
Conditions: for Tumor Volume (Day 0) / Tumor Volume (Day 22): mean ± SEM
Procedure: The antitumor effect of the test compound was evaluated using a BALB/c nude mouse subcutaneous xenograft tumor model of human diffuse large B-cell lymphoma TMD-8 cells.
• 1. Experimental animals: BALB/c nude mice, female, 6 to 8 weeks old. Vital River Laboratory Animal Technology Co., Ltd. • 2. Cell line: Human diffuse large B-cell lymphoma TMD-8 cells (purchased from Shanghai Huzhen Industrial Co., Ltd.).
Cell culture: Routine cell culture was conducted in RPMI-1640 medium containing 10% fetal bovine serum under 5% CO2 at 37° C. Cells were passaged based on cell growth conditions at a passage ratio of 1:3 to 1:4.
Tumor cell inoculation and grouping: TMD-8 cells in the logarithmic growth phase were harvested, counted, and resuspended in a mixture of 50% serum-free RPMI-1640 medium and 50% Matrigel. The cell concentration was adjusted to 4.0×10^7 cells/mL. The cell suspension was placed in an ice box, aspirated using a 1-mL syringe, and injected subcutaneously into the right forelimb axilla of nude mice at 200 μL per animal (0.8×10^7 cells/mouse) to establish the TMD-8 xenograft tumor model. Administration was started when the average tumor volume reached approximately 160 mm^3. The day of grouping was designated as Day 1 (D1) of the experiment, and administration was started based on animal body weight.
The pharmacodynamic experiment was conducted with a 7-day administration cycle, where the test compound was administered once daily intragastrically at 24-hour intervals, for a total of three cycles. During the experiment, animal body weight and tumor size were measured twice a week, and clinical symptoms were observed and recorded daily.
The test compound was administered at doses of 10 mg/kg, 30 mg/kg, and 100 mg/kg, with the vehicle being 10% DMSO/10% Solutol HS15/80% water. Tumor volume (TV) was calculated using the formula: ½×a×b^2, where a and b represent the measured length and width of the tumor, respectively. The tumor growth inhibition rate (TGI, %) was calculated using the formula: TGI (%)=[1−(average tumor volume at the end of administration in a treatment group−average tumor volume at the beginning of administration in this treatment group)/(average tumor volume at the end of treatment in the vehicle control group−average tumor volume at the beginning of treatment in the vehicle control group)]×100%. The relative tumor proliferation rate (T/C, %) was calculated using the formula: T/C %=TRTV/CRTV[…] (TRTV: mean RTV of the treatment group; CRTV: mean RTV of the negative control group). The relative tumor volume (RTV) was calculated based on the tumor measurement results, with the formula RTV=Vt/V0, where V0 is the tumor volume measured at the time of grouping administration (i.e., Day 1), and Vt is the tumor volume at a certain measurement time. TRTV and CRTV were derived from data on the same day.
The experimental data were calculated and subjected to relevant statistical processing using Microsoft Office Excel 2007 software. Unless otherwise specified, the data were expressed as mean±standard error (Mean±SE), and comparisons between groups were performed using t-tests.

[1] = 10 mg/kg intragastric once daily
[2] = 30 mg/kg intragastric once daily
[3] = 100 mg/kg intragastric once daily

SMILES: O=C1CCC(c2noc3ccc4c(NC(=O)CN5CCN(C[C@H]6CC[C@H](n7cc(NC(=O)c8coc(-c9ccnc(NCC%10CC%10)c9)n8)c(C(F)F)n7)CC6)CC5)cccc4c23)C(=O)N1 (stereo partly drawn) [Hydrochloride of Compound of Formula (I)]
- T/C (Day 22) [1]: 58%
- TGI (Day 22) [1]: 49%
- Tumor Volume (Day 0) [1]: 161 ± 12 mm^3
- Tumor Volume (Day 22) [1]: 714 ± 153 mm^3
- T/C (Day 22) [2]: 34%
- TGI (Day 22) [2]: 75%
- Tumor Volume (Day 0) [2]: 160 ± 9 mm^3
- Tumor Volume (Day 22) [2]: 430 ± 98 mm^3
- T/C (Day 22) [3]: 23%
- TGI (Day 22) [3]: 88%
- Tumor Volume (Day 0) [3]: 160 ± 8 mm^3
- Tumor Volume (Day 22) [3]: 291 ± 70 mm^3
